# Tests used:
# [1] = tested on: MES-induced seizures; test: Maximal electroshock-induced seizure (MES) test; assay type: in vivo, male Swiss albino mice; settings: for Minimum active dose (mg/kg) MES 0.5 h / Minimum active dose (mg/kg) MES 4 h: oral, lowest dose active in half or more of the mice, n = 6;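 for % protection MES 0.5 h: percent reduction of the test group versus the control group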;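 for % protection MES 4 h: percent reduction of the test group versus the control group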
# [2] = tested on: induced seizures; test: Anticonvulsant screening (MES and sc-PTZ), outcome recovery/death
# [3] = tested on: mice; test: Rotarod neurotoxicity screening; assay type: in vivo, male Swiss albino mice; settings: for Neurotoxicity (rotarod test), result in words: at the highest dose (300 mg/kg); for Neurotoxicity dose (mg/kg) 0.5 h / Neurotoxicity dose (mg/kg) 4 h: rotarod, oral doses 30, 100, 300 mg/kg
# Description: The rotarod test, as described in the literature, was used to evaluate neurotoxicity (NT) in mice. In brief, six mice (one group) were trained to balance on a spinning rod (3 cm diameter and 6 rpm speed) to familiarize with the rotarod apparatus (Orchid Scientific, India). Each mouse underwent three trials to remain on the rotating rod for over 1 minute, with the experiment’s cutoff time (180 s) remaining constant. Different pre-oral (p.o.) doses of test and standard substances were administered to the trained animals.
# [4] = tested on: PTZ-induced seizures; test: Subcutaneous pentylenetetrazole (sc-PTZ) test; assay type: in vivo, male Swiss albino mice; settings: for Minimum active dose (mg/kg) Sc-PTZ 0.5 h / Minimum active dose (mg/kg) Sc-PTZ 4 h: oral, lowest dose active in half or more of the mice, n = 6;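 for % protection Sc-PTZ 0.5 h: percent reduction of the test group versus the control group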;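 for % protection Sc-PTZ 4 h: percent reduction of the test group versus the control group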
# [5] = molecular target: T1, human carbonic anhydrase IX (Homo sapiens, UniProt Q16790); test: Human carbonic anhydrase IX colorimetric (p-nitrophenyl acetate) inhibition assay; assay type: biochemical; settings: mean ± SEM, three independent experiments in triplicate; read-out: CA IX (IC50)
# T1 construct: purchased Sino Biological Inc, Beijing, China
# Description: (§1) In brief, the reaction mixture contained 60 μL of 50 mM Tris-sulfate buffer (pH 7.6, containing 0.1 mM ZnCl2),10 μL (0.5 mM) of the test compound in 1% DMSO, and 10 μL of human carbonic anhydrase II and IX (Sino Biological Inc, Beijing, China). All the ingredients were mixed well and pre-incubated at 25°C for 10 min. Substrate p-nitrophenyl acetate was prepared as a 6 mM stock solution using 5% of acetonitrile in buffer and was used fresh. […] The total assay volume was adjusted to 100 μL and further incubated at 37°C for 30 min. Furthermore, all the ingredients were mixed properly, and absorbance was measured. […] The results reported are the mean of triplicate experiments (±SEM) and expressed IC50 values, which were calculated.
# [6] = molecular target: T2, human carbonic anhydrase II (Homo sapiens, UniProt P00918); test: Human carbonic anhydrase II colorimetric (p-nitrophenyl acetate) inhibition assay; assay type: biochemical; settings: mean ± SEM, three independent experiments in triplicate; read-out: CA II (IC50)
# T2 construct: purchased Sino Biological Inc, Beijing, China
# Description: as §1
Compound,% protection MES 0.5 h ([1]; 100 mg/kg oral),% protection MES 4 h ([1]; 100 mg/kg oral),Minimum active dose (mg/kg) MES 0.5 h [1],Minimum active dose (mg/kg) MES 4 h [1],Recovery/death ([2]; 100 mg/kg oral),Neurotoxicity dose (mg/kg) 0.5 h [3],Neurotoxicity dose (mg/kg) 4 h [3],% protection Sc-PTZ 0.5 h ([4]; 100 mg/kg oral),Minimum active dose (mg/kg) Sc-PTZ 0.5 h [4],Minimum active dose (mg/kg) Sc-PTZ 4 h [4],% protection MES 0.5 h ([1]; 300 mg/kg oral),% protection MES 4 h ([1]; 300 mg/kg oral),Recovery/death ([2]; 30 mg/kg oral),Recovery/death ([2]; 300 mg/kg oral),% protection Sc-PTZ 4 h ([4]; 300 mg/kg oral),IC50 [5],% protection Sc-PTZ 0.5 h ([4]; 300 mg/kg oral),IC50 [6],also measured
"CC(=O)Nc1nnc(S(N)(=O)=O)s1 [Acetazolamide, reference compound]",66.15%,58.46%,100 mg/kg,100 mg/kg,Recovery,- (The indication - (dash) denotes a lack of action at the maximum dose supplied (300 mg/kg)),- (The indication - (dash) denotes a lack of action at the maximum dose supplied (300 mg/kg)),73.13%,100 mg/kg,100 mg/kg,–,–,–,–,–,–,–,–,"Neurotoxicity (rotarod test), result in words [3]: no neurotoxicity; % protection Sc-PTZ 4 h ([4]; 100 mg/kg oral): 58.46%"
"O=C(Nc1nncs1)c1cccc(OCCN2CCOCC2)c1 [Compound 6a, 3-(2-morpholinoethoxy)-N-(1,3,4-thiadiazol-2-yl)benzamide]",18.46%,–,100 mg/kg,300 mg/kg,Recovery,- (The indication - (dash) denotes a lack of action at the maximum dose supplied (300 mg/kg)),- (The indication - (dash) denotes a lack of action at the maximum dose supplied (300 mg/kg)),–,- (The indication - (dash) denotes a lack of action at the maximum dose supplied (300 mg/kg)),300 mg/kg,30.76%,43.07%,Recovery,Recovery,19.08%,400 ± 50 nM,–,–,–
"O=C(Nc1nncs1)c1cccc(OCCN2CCCCC2)c1 [Compound 6b, 3-(2-(piperidin-1-yl)ethoxy)-N-(1,3,4-thiadiazol-2-yl)benzamide]",30.76%,–,100 mg/kg,300 mg/kg,Recovery,- (The indication - (dash) denotes a lack of action at the maximum dose supplied (300 mg/kg)),- (The indication - (dash) denotes a lack of action at the maximum dose supplied (300 mg/kg)),–,300 mg/kg,300 mg/kg,41.53%,50.76%,Recovery,Recovery,34.17%,230 ± 40 nM,10.20%,–,–
"O=C(Nc1nncs1)c1cccc(OCCN2CCCC2)c1 [Compound 6c, 3-(2-(pyrrolidin-1-yl)ethoxy)-N-(1,3,4-thiadiazol-2-yl)benzamide]",26.15%,35.38%,100 mg/kg,100 mg/kg,Recovery,- (The indication - (dash) denotes a lack of action at the maximum dose supplied (300 mg/kg)),- (The indication - (dash) denotes a lack of action at the maximum dose supplied (300 mg/kg)),33.81%,100 mg/kg,300 mg/kg,38.46%,46.13%,Recovery,Recovery,40.21%,470 ± 20 nM,29.26%,–,–
"CN(C)CCOc1cccc(C(=O)Nc2nncs2)c1 [Compound 6e, 3-(2-(dimethylamino)ethoxy)-N-(1,3,4-thiadiazol-2-yl)benzamide]",32.3%,55.38%,30 mg/kg,100 mg/kg,Recovery,- (The indication - (dash) denotes a lack of action at the maximum dose supplied (300 mg/kg)),- (The indication - (dash) denotes a lack of action at the maximum dose supplied (300 mg/kg)),32.39%,30 mg/kg,100 mg/kg,46.15%,73.83%,Recovery,Recovery,74.2%,210 ± 40 nM,46.55%,230 ± 20 nM,% protection MES 0.5 h ([1]; 30 mg/kg oral): 38.46%; % protection Sc-PTZ 0.5 h ([4]; 30 mg/kg oral): 39.02%; % protection Sc-PTZ 4 h ([4]; 100 mg/kg oral): 63.58%
"COc1ccc(C(=O)Nc2nncs2)cc1OCCN1CCOCC1 [Compound 7a, 4-Methoxy-3-(2-morpholinoethoxy)-N-(1,3,4-thiadiazol-2-yl)benzamide]",16.92%,–,100 mg/kg,300 mg/kg,Recovery,–,–,–,300 mg/kg,300 mg/kg,–,40%,Recovery,Recovery,15.38%,880 ± 40 nM,16.64%,970 ± 50 nM,–
"COc1ccc(C(=O)Nc2nncs2)cc1OCCN1CCCCC1 [Compound 7b, 4-Methoxy-3-(2-(piperidin-1-yl)ethoxy)-N-(1,3,4-thiadiazol-2-yl)benzamide]",29.23%,–,100 mg/kg,300 mg/kg,Recovery,–,–,–,300 mg/kg,300 mg/kg,–,47.69%,Recovery,Recovery,32.21%,730 ± 20 nM,23.07%,740 ± 30 nM,–
"COc1ccc(C(=O)Nc2nncs2)cc1OCCN1CCCC1 [Compound 7c, 4-Methoxy-3-(2-(pyrrolidin-1-yl)ethoxy)-N-(1,3,4-thiadiazol-2-yl)benzamide]",24.61%,32.30%,100 mg/kg,100 mg/kg,Recovery,- (The indication - (dash) denotes a lack of action at the maximum dose supplied (300 mg/kg)),- (The indication - (dash) denotes a lack of action at the maximum dose supplied (300 mg/kg)),–,300 mg/kg,300 mg/kg,35.38%,49.23%,Recovery,Recovery,36.75%,640 ± 40 nM,35.38%,690 ± 20 nM,–
"CCCC(CCC)C(=O)O [Sodium valproate, reference compound]",–,–,300 mg/kg,300 mg/kg,–,- (The indication - (dash) denotes a lack of action at the maximum dose supplied (300 mg/kg)),- (The indication - (dash) denotes a lack of action at the maximum dose supplied (300 mg/kg)),–,300 mg/kg,300 mg/kg,72.30%,63.07%,–,Recovery,63.03%,–,77.72%,–,"Neurotoxicity (rotarod test), result in words [3]: no neurotoxicity"
